{"source": "patent US20260250290A1", "about": "(BRISTOL-MYERS SQUIBB COMPANY, priority 2023, published 2026)", "note": "pIC50: −log10 of the molar value. Where a name gives a salt, the structure may show the parent alone.", "data": [{"target": "T1, full length SGK1 (Homo sapiens, UniProt O00141)", "T1 construct": "125 μM full length SGK1 (Life Technologies Part #PR7358A); purchased Life Technologies PR7358A", "T1 sequence (O00141 1-431)": "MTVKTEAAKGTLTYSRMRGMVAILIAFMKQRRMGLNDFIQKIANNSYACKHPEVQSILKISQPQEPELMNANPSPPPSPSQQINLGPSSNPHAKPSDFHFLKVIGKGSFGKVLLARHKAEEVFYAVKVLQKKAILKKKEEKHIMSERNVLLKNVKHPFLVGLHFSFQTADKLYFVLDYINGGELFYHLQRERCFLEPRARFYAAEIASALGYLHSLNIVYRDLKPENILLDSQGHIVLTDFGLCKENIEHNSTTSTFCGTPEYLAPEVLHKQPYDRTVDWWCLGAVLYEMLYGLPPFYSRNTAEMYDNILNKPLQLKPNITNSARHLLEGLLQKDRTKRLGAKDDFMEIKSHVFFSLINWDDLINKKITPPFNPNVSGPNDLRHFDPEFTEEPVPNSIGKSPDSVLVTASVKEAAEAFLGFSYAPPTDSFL", "assay": "SGK1 inhibition Assay A (Caliper LabChip electrophoretic separation of fluorescent peptide substrate and phosphorylated product)", "type": "biochemical", "settings": "Assay A; 20 μM ATP, 40 min incubation; read-out: SGK1 IC50", "values": [{"smiles": "CC(=O)N1CC=C(c2cc(N3CCC[C@@H](NC(=O)c4sc(Cl)cc4OC4CCNC(C)(C)C4)C3)c3c(N)ncnn23)C1", "note": "(mixture of isomers) [Example 627, N-((R)-1-(7-(1-acetyl-2,5-dihydro-1H-pyrrol-3-y1)-4-aminopyrrolo[2,1-f][1,2,4]triazin-5-yl)piperidin-3-y1)-5-chloro-3-((2,2-dimethylpiperidin-4-yl)oxy)thiophene-2-carboxamide]", "pIC50": 8.00}, {"smiles": "COC(=O)N1CC=C(c2cc(N3CCC[C@@H](NC(=O)c4sc(Cl)cc4OC4CCNC(C)(C)C4)C3)c3c(N)ncnn23)C1", "note": "(mixture of isomers) [Example 628, methyl 3-(4-amino-5-((3R)-3-(5-chloro-3-((2,2-dimethylpiperidin-4-yl)oxy)thiophene-2-carboxamido)piperidin-1-yl)pyrrolo[2,1-f][1,2,4]triazin-7-y1)-2,5-dihydro-1H-pyrrole-1-carboxylate]", "pIC50": 9.00}, {"smiles": "CS(=O)(=O)c1ccc(-c2cc(N3CC[C@@H](F)[C@@H](NC(=O)c4ccc(Cl)s4)C3)c3c(N)ncnn23)cc1", "note": "(relative stereo) [Example 143, rel-N-((3R,4S)-1-(4-amino-7-(4-(methylsulfonyl)phenyl)pyrrolo[2,1-f][1,2,4]triazin-5-yl)-4-fluoropiperidin-3-yl)-5-chlorothiophene-2-carboxamide, TFA]", "pIC50": 8.00}, {"smiles": "CS(=O)(=O)c1ccc(-c2cc(N3CC[C@H](F)[C@@H](NC(=O)c4ccc(Cl)s4)C3)c3c(N)ncnn23)cc1", "note": "(relative stereo) [Example 144, rel-N-((3R,4R)-1-(4-amino-7-(4-(methylsulfonyl)phenyl)pyrrolo[2,1-f][1,2,4]triazin-5-yl)-4-fluoropiperidin-3-yl)-5-chlorothiophene-2-carboxamide, TFA]", "pIC50": 7.62}, {"smiles": "CS(=O)(=O)c1ccc(-c2cc(N3CC[C@@H]4C[C@]4(NC(=O)c4ccc(Cl)s4)C3)c3c(N)ncnn23)cc1", "note": "(relative stereo) [Example 165, rel-N-((1R,6R)-3-(4-amino-7-(4-(methylsulfonyl)phenyl)pyrrolo[2,1-f][1,2,4]triazin-5-yl)-3-azabicyclo[4.1.0]heptan-1-yl)-5-chlorothiophene-2-carboxamide, TFA]", "pIC50": 6.55}, {"smiles": "Nc1ncnn2c(C3=CCN(C(=O)[C@H]4C[C@@H]4F)C3)cc(N3CCC[C@@H](NC(=O)c4sc(Cl)cc4OCCN4CCOCC4)C3)c12", "note": "(relative stereo) [Example 262, rel-N-((R)-1-(4-amino-7-(1-((1R,2S)-2-fluorocyclopropane-1-carbonyl)-2,5-dihydro-1H-pyrrol-3-yl)pyrrolo[2,1-f][1,2,4]triazin-5-yl)piperidin-3-yl)-5-chloro-3-(2-morpholinoethoxy)thiophene-2-carboxamide]", "pIC50": 7.74}, {"smiles": "CC(=O)N1CC=C(c2cc(N3CCC[C@@H](NC(=O)c4sc(Cl)cc4OCC4CCCN4)C3)c3c(N)ncnn23)C1", "note": "(single isomer, unassigned) [Example 391D]", "pIC50": 8.70}, {"smiles": "CC(=O)N1CC=C(c2cc(N3CCC[C@@H](NC(=O)c4sc(Cl)cc4OCC4CCCN4)C3)c3c(N)ncnn23)C1", "note": "(single isomer, unassigned) [Example 391E]", "pIC50": 8.40}, {"smiles": "CC(=O)N1CC=C(c2cc(N3CCC[C@@H](NC(=O)c4sc(Cl)cc4OCC4CCCN4C)C3)c3c(N)ncnn23)C1", "note": "(single isomer, unassigned) [Example 391]", "pIC50": 8.40}, {"smiles": "CC(=O)N1CC=C(c2cc(N3CCC[C@@H](NC(=O)c4sc(C(F)F)cc4C4CCNC4)C3)c3c(N)ncnn23)C1", "note": "(single isomer, unassigned) [Example 398F]", "pIC50": 6.89}, {"smiles": "CC(=O)N1CC=C(c2cc(N3CCC[C@@H](NC(=O)c4sc(Cl)cc4OC4CCCN(C)C4)C3)c3c(N)ncnn23)C1", "note": "(single isomer, unassigned) [Example 595]", "pIC50": 7.43}, {"smiles": "CC(=O)N1CC=C(c2cc(N3CCC[C@@H](NC(=O)c4sc(Cl)cc4OC4CCNCC4F)C3)c3c(N)ncnn23)C1", "note": "(single isomer, unassigned) [Example 600D]", "pIC50": 7.72}, {"smiles": "CC(=O)N1CC=C(c2cc(N3CCC[C@@H](NC(=O)c4sc(Cl)cc4OC4CCN(C)CC4F)C3)c3c(N)ncnn23)C1", "note": "(single isomer, unassigned) [Example 600]", "pIC50": 8.22}, {"smiles": "CC(=O)N1CC=C(c2cc(N3CCC[C@@H](NC(=O)c4sc(Cl)cc4OC4CC5CC4CN5)C3)c3c(N)ncnn23)C1", "note": "(single isomer, unassigned) [Example 607]", "pIC50": 8.52}, {"smiles": "CC(=O)N1CC=C(c2cc(N3CCCC(NC(=O)c4sc(Cl)cc4OC4CC5CC4CN5C)C3)c3c(N)ncnn23)C1", "note": "(single isomer, unassigned) [Example 608]", "pIC50": 8.10}, {"smiles": "CC(=O)N1CC=C(c2cc(N3CCCC(NC(=O)c4sc(Cl)cc4OC4CC5CC4CN5C)C3)c3c(N)ncnn23)C1", "note": "(single isomer, unassigned) [Example 609]", "pIC50": 8.15}, {"smiles": "CC(=O)N1CC=C(c2cc(N3CCCC(NC(=O)c4sc(Cl)cc4OC4CC5CC4CN5C(C)C)C3)c3c(N)ncnn23)C1", "note": "(single isomer, unassigned) [Example 610]", "pIC50": 7.96}, {"smiles": "CC(=O)N1CC=C(c2cc(N3CCCC(NC(=O)c4sc(Cl)cc4OC4CC5CC4CN5C(C)C)C3)c3c(N)ncnn23)C1", "note": "(single isomer, unassigned) [Example 611]", "pIC50": 8.15}, {"smiles": "CC(=O)N1CC=C(c2cc(N3CCCC(NC(=O)c4sc(Cl)cc4OC4CCNC(C)C4)C3)c3c(N)ncnn23)C1", "note": "(single isomer, unassigned) [Example 622]", "pIC50": 8.52}, {"smiles": "CC(=O)N1CC=C(c2cc(N3CCCC(NC(=O)c4sc(Cl)cc4OC4CCNC(C)C4)C3)c3c(N)ncnn23)C1", "note": "(single isomer, unassigned) [Example 623]", "pIC50": 8.40}, {"smiles": "CC1CC(Oc2cc(Cl)sc2C(=O)NC2CCCN(c3cc(-c4cncnc4)n4ncnc(N)c34)C2)CCN1", "note": "(single isomer, unassigned) [Example 625]", "pIC50": 8.22}, {"smiles": "CC1CC(Oc2cc(Cl)sc2C(=O)NC2CCCN(c3cc(-c4cncnc4)n4ncnc(N)c34)C2)CCN1", "note": "(single isomer, unassigned) [Example 626]", "pIC50": 8.10}, {"smiles": "COC(=O)N1CC=C(c2cc(N3CCCC(NC(=O)c4sc(Cl)cc4OC4CCNC(C)(C)C4)C3)c3c(N)ncnn23)C1", "note": "(single isomer, unassigned) [Example 629]", "pIC50": 8.30}, {"smiles": "COC(=O)N1CC=C(c2cc(N3CCCC(NC(=O)c4sc(Cl)cc4OC4CCNC(C)(C)C4)C3)c3c(N)ncnn23)C1", "note": "(single isomer, unassigned) [Example 630]", "pIC50": 8.70}, {"smiles": "CC(=O)N1CC=C(c2cc(N3CCCC(NC(=O)c4sc(Cl)cc4OCC4CCNC4)C3)c3c(N)ncnn23)C1", "note": "(single isomer, unassigned) [Example 638]", "pIC50": 8.10}, {"smiles": "CC(=O)N1CC=C(c2cc(N3CCCC(NC(=O)c4sc(Cl)cc4OCC4CCNC4)C3)c3c(N)ncnn23)C1", "note": "(single isomer, unassigned) [Example 639]", "pIC50": 8.40}, {"smiles": "CCOC(=O)[C@H]1CCCN(c2cc(-c3ccc(S(C)(=O)=O)cc3)n3ncnc(N)c23)C1", "note": "[Example 1, ethyl (S)-1-(4-amino-7-(4-(methylsulfonyl)phenyl)pyrrolo[2,1-f][1,2,4]triazin-5-yl)piperidine-3-carboxylate]", "pIC50": 5.52}, {"smiles": "CS(=O)(=O)c1ccc(-c2cc(N3CCCC(NC(=O)c4ccccn4)C3)c3c(N)ncnn23)cc1", "note": "(centres unmarked) [Example 2, N-(1-(4-amino-7-(4-(methylsulfonyl)phenyl)pyrrolo[2,1-f][1,2,4]triazin-5-yl)piperidin-3-yl)picolinamide, TFA]", "pIC50": 7.09}, {"smiles": "CS(=O)(=O)c1ccc(-c2cc(N3CCCC(NC(=O)c4cccnn4)C3)c3c(N)ncnn23)cc1", "note": "(centres unmarked) [Example 3, N-(1-(4-amino-7-(4-(methylsulfonyl)phenyl)pyrrolo[2,1-f][1,2,4]triazin-5-yl)piperidin-3-yl)pyridazine-3-carboxamide, TFA]", "pIC50": 6.62}, {"smiles": "CS(=O)(=O)c1ccc(-c2cc(N3CCCC(NC(=O)c4ccccc4)C3)c3c(N)ncnn23)cc1", "note": "(centres unmarked) [Example 4, N-(1-(4-amino-7-(4-(methylsulfonyl)phenyl)pyrrolo[2,1-f][1,2,4]triazin-5-yl)piperidin-3-yl)benzamide]", "pIC50": 7.48}, {"smiles": "CS(=O)(=O)c1ccc(-c2cc(N3CCCC(NC(=O)c4ccc(Cl)cc4)C3)c3c(N)ncnn23)cc1", "note": "(centres unmarked) [Example 5, N-(1-(4-amino-7-(4-(methylsulfonyl)phenyl)pyrrolo[2,1-f][1,2,4]triazin-5-yl)piperidin-3-yl)-4-chlorobenzamide, TFA]", "pIC50": 7.14}, {"smiles": "CS(=O)(=O)c1ccc(-c2cc(N3CCCC(NC(=O)c4ccc(Cl)c(Cl)c4)C3)c3c(N)ncnn23)cc1", "note": "(centres unmarked) [Example 6, N-(1-(4-amino-7-(4-(methylsulfonyl)phenyl)pyrrolo[2,1-f][1,2,4]triazin-5-yl)piperidin-3-yl)-3,4-dichlorobenzamide]", "pIC50": 6.80}, {"smiles": "Cc1ccc(C(=O)NC2CCCN(c3cc(-c4ccc(S(C)(=O)=O)cc4)n4ncnc(N)c34)C2)cc1", "note": "(centres unmarked) [Example 7, N-(1-(4-amino-7-(4-(methylsulfonyl)phenyl)pyrrolo[2,1-f][1,2,4]triazin-5-yl)piperidin-3-yl)-4-methylbenzamide, TFA]", "pIC50": 7.05}, {"smiles": "COc1ccc(C(=O)NC2CCCN(c3cc(-c4ccc(S(C)(=O)=O)cc4)n4ncnc(N)c34)C2)cc1", "note": "(centres unmarked) [Example 8, N-(1-(4-amino-7-(4-(methylsulfonyl)phenyl)pyrrolo[2,1-f][1,2,4]triazin-5-yl)piperidin-3-yl)-4-methoxybenzamide, TFA]", "pIC50": 7.17}, {"smiles": "CS(=O)(=O)c1ccc(-c2cc(N3CCCC(NC(=O)Nc4ccccc4)C3)c3c(N)ncnn23)cc1", "note": "(centres unmarked) [Example 9, 1-(1-(4-amino-7-(4-(methylsulfonyl)phenyl)pyrrolo[2,1-f][1,2,4]triazin-5-yl)piperidin-3-yl)-3-phenylurea, TFA]", "pIC50": 6.58}]}]}
